Laboratory results as given in patent publication US20150105386A1, “4-(4-PYRIDINYL)-BENZAMIDES AND THEIR USE AS ROCK ACTIVITY MODULATORS” (AbbVie Deutschland GmbH & Co KG, priority 2007, published 2015).

Target: T1, hROCK-2 (Homo sapiens, UniProt O75116)
T1 construct: purchased Upstate
Experiment: ROCK-2 Assay (33P-ATP FlashPlate kinase assay, biotinylated S6 peptide)
Format: biochemical
Details: hROCK-2 0.8 nM, 5 μM ATP, 1.5 μM biotinylated S6 peptide, room temperature, 60 min
Protocol: The reaction is stopped by addition of 150 μl of 0.1 M EDTA in Dulbecco's PBS. 170 μl from each well are loaded onto a FlashPlate (PerkinElmer) and incubated at room temperature for 30 min.

T1 sequence (O75116 whole entry): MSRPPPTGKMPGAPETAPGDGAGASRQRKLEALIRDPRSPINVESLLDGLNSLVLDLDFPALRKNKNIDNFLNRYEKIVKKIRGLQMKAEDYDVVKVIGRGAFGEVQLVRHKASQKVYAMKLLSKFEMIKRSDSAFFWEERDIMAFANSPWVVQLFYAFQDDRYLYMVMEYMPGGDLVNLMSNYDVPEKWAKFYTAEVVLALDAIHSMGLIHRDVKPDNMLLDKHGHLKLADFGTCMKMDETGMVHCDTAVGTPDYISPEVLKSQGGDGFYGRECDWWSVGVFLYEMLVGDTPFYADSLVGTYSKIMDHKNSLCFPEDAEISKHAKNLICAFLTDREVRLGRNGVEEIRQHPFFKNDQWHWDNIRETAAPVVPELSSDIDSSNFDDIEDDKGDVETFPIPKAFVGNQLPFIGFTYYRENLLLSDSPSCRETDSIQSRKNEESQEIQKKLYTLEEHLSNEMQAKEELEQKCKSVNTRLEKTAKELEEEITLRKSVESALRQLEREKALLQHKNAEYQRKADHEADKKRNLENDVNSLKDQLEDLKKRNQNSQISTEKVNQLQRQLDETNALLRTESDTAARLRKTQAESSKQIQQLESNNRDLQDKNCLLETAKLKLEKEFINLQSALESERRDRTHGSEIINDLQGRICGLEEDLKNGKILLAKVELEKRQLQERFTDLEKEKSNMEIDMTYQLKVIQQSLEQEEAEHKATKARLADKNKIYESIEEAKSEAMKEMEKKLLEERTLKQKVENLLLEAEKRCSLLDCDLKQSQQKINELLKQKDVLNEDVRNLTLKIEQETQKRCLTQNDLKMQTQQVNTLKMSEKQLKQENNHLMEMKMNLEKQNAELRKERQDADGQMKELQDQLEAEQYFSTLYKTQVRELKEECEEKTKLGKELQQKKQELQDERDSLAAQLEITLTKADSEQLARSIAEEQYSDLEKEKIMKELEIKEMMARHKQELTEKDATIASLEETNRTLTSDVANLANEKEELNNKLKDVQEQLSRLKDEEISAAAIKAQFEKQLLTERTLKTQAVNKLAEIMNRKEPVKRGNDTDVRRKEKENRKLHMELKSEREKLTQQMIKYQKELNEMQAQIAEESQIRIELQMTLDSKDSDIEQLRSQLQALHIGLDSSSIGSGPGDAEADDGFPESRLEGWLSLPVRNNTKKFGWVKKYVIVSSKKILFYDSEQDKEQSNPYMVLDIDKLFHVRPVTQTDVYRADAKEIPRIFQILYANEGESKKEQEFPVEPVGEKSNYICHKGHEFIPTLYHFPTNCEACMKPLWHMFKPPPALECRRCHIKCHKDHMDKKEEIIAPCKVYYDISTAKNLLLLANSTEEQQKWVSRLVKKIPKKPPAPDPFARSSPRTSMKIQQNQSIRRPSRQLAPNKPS

Compound | Ki [nM]
COc1cccc([C@H](C)NC(=O)c2ccc(-c3ccncc3)cc2OC)c1 [Example 130, 2-methoxy-N—[(S)-1-(3-methoxy-phenyl)-ethyl]-4-pyridin-4-yl-benzamide] | 50 to 500
O=C(N[C@H](CO)Cc1ccc(O)cc1)c1ccc(-c2ccncc2)cc1 [Example 15, N-[(1S)-2-hydroxy-1-(4-hydroxybenzyl)ethyl]-4-pyridin-4-ylbenzamide] | 50 to 500
O=C(N[C@H](CO)Cc1c[nH]c2ccccc12)c1ccc(-c2ccncc2)cc1 [Example 14, N-[(1S)-2-hydroxy-1-(1H-indol-3-ylmethyl)ethyl]-4-pyridin-4-ylbenzamide] | 50 to 500
COc1cc(-c2ccncc2)ccc1C(=O)N[C@H](C)c1ccc2ccccc2c1 [Example 107, 2-methoxy-N—((R)-1-naphthalen-2-yl-ethyl)-4-pyridin-4-yl-benzamide] | 50 to 500
O=C(NC(c1ccccc1)[C@@H](O)c1ccccc1)c1ccc(-c2ccncc2)cc1 (stereo partly drawn) [Example 34, N-[(2S)-2-hydroxy-1,2-diphenylethyl]-4-pyridin-4-ylbenzamide] | 50 to 500
COc1cc(-c2ccncc2)ccc1C(=O)N[C@@H](C)c1ccccc1 [Example 114, 2-methoxy-N—((S)-1-phenyl-ethyl)-4-pyridin-4-yl-benzamide] | 50 to 500
C[C@@H](NC(=O)c1ccc(-c2ccncc2)cc1)c1ccccn1 [Example 80, 4-pyridin-4-yl-N-[(1R)-1-pyridin-2-ylethyl]benzamide] | 50 to 500
C[C@@H](NC(=O)c1ccc(-c2ccncc2)cc1)c1ccc(Cl)cc1 [Example 90, N-[(1R)-1-(4-chlorophenyl)ethyl]-4-pyridin-4-ylbenzamide] | < 50
COc1cccc([C@@H](C)NC(=O)c2ccc(-c3ccncc3)c(F)c2)c1 [Example 244, 3-fluoro-N—[(R)-1-(3-methoxy-phenyl)-ethyl]-4-pyridin-4-yl-benzamide] | < 50
Cc1cnccc1-c1ccc(C(=O)N[C@H](C)c2ccc3ccccc3c2)cc1 [Example 170, 4-(3-methyl-pyridin-4-yl)-N—((R)-1-naphthalen-2-yl-ethyl)-benzamide] | 50 to 500
Cc1ccc(C(CO)NC(=O)c2ccc(-c3ccncc3)cc2)c(C)c1 (stereo not drawn) [Example 40, N-[1-(2,4-dimethylphenyl)-2-hydroxyethyl]-4-pyridin-4-ylbenzamide] | 50 to 500
C[C@@H](NC(=O)c1ccc(-c2ccncc2)cc1)c1cccc(C(F)(F)F)c1 [Example 87, 4-pyridin-4-yl-N-{(1R)-1-[3-(trifluoromethyl)phenyl]ethyl}benzamide] | < 50
CN1CCN(CC(NC(=O)c2ccc(-c3ccncc3)cc2)c2ccccc2)CC1 (stereo not drawn) [Example 33, N-[2-(4-methylpiperazin-1-yl)-1-phenylethyl]-4-pyridin-4-ylbenzamide] | 50 to 500
COc1cccc([C@H](C)NC(=O)c2ccc(-c3ccncc3)c(C)c2)c1 [Example 102, N—[(S)-1-(3-methoxy-phenyl)-ethyl]-3-methyl-4-pyridin-4-yl-benzamide] | < 50
COc1cc(-c2ccncc2)ccc1C(=O)N[C@H](C)c1cccc2ccccc12 [Example 106, 2-methoxy-N—((R)-1-naphthalen-1-yl-ethyl)-4-pyridin-4-yl-benzamide] | < 50
C[C@@H](NC(=O)c1ccc(-c2ccncc2)cc1)c1ccccc1F [Example 88, N-[(1R)-1-(2-fluorophenyl)ethyl]-4-pyridin-4-ylbenzamide] | < 50
Cc1cnccc1-c1ccc(C(=O)N[C@H](C)c2cccc(C(F)(F)F)c2)cc1 [Example 181, 4-(3-methyl-pyridin-4-yl)-N—[(R)-1-(3-trifluoromethyl-phenyl)-ethyl]-benzamide] | < 50
COc1cccc([C@@H](C)NC(=O)c2ccc(-c3ccncc3)cc2F)c1 [Example 245, 2-fluoro-N—[(R)-1-(3-methoxy-phenyl)-ethyl]-4-pyridin-4-yl-benzamide] | < 50
O=C(NC(c1ccccc1)c1ccc(Cl)cc1)c1ccc(-c2ccncc2)cc1 (stereo not drawn) [Example 49, N-[(4-chlorophenyl)(phenyl)methyl]-4-pyridin-4-ylbenzamide] | 50 to 500
O=C(NC(Cn1ccnc1)c1ccccc1)c1ccc(-c2ccncc2)cc1 (stereo not drawn) [Example 35, N-[2-(1H-imidazol-1-yl)-1-phenylethyl]-4-pyridin-4-ylbenzamide] | < 50
O=C(NC(CO)c1cccc2ccccc12)c1ccc(-c2ccncc2)cc1 (stereo not drawn) [Example 187, N-(2-hydroxy-1-naphthalen-1-yl-ethyl)-4-pyridin-4-yl-benzamide] | < 50
Cc1ccc(C(CO)NC(=O)c2ccc(-c3ccncc3)cc2)cc1C (stereo not drawn) [Example 41, N-[1-(3,4-dimethylphenyl)-2-hydroxyethyl]-4-pyridin-4-ylbenzamide] | < 50
O=C(NC(CN1CCCC1)c1ccccc1)c1ccc(-c2ccncc2)cc1 (stereo not drawn) [Example 31, N-(1-phenyl-2-pyrrolidin-1-ylethyl)-4-pyridin-4-ylbenzamide] | < 50
C[C@@H](NC(=O)c1ccc(-c2ccncc2)cc1)c1cccc2ccccc12 [Example 47, N-[(1R)-1-(1-naphthyl)ethyl]-4-pyridin-4-ylbenzamide] | < 50

Compound | Ki [nM]
CCC(NC(=O)c1ccc(-c2ccncc2)cc1)c1ccccc1 (stereo not drawn) [Example 75, N-(1-phenylpropyl)-4-pyridin-4-ylbenzamide] | < 50
O=C(NC(CN1CCCCC1)c1ccccc1)c1ccc(-c2ccncc2)cc1 (stereo not drawn) [Example 36, N-(1-phenyl-2-piperidin-1-ylethyl)-4-pyridin-4-ylbenzamide] | < 50
Cc1cnccc1-c1ccc(C(=O)N[C@H](C)c2ccccc2)cc1 [Example 157, 4-(3-methyl-pyridin-4-yl)-N—((R)-1-phenyl-ethyl)-benzamide] | < 50
O=C(N[C@@H](c1ccccc1)[C@H](O)c1ccccc1)c1ccc(-c2ccncc2)cc1 [Example 29, N-[(1S,2R)-2-hydroxy-1,2-diphenylethyl]-4-pyridin-4-ylbenzamide] | 50 to 500
CC(NC(=O)c1ccc(-c2ccncc2)cc1)c1ccco1 (stereo not drawn) [Example 53] | 50 to 500
COc1cccc([C@@H](C)NC(=O)c2ccc(-c3ccncc3F)cc2OC)c1 [Example 247, 4-(3-fluoro-pyridin-4-yl)-2-methoxy-N—[(R)-1-(3-methoxy-phenyl)-ethyl]-benzamide] | < 50
CC(C)(C)OC(=O)NCC(NC(=O)c1ccc(-c2ccncc2)cc1)c1ccccc1 (stereo not drawn) [Example 3, tert-Butyl-{2-phenyl-2-[(4-pyridin-4-ylbenzoyl)amino]ethyl}carbamate] | 50 to 500
COc1cccc([C@@H](C)NC(=O)c2ccc(-c3ccncc3)c(OC)c2)c1 [Example 97, 3-methoxy-N—[(R)-1-(3-methoxy-phenyl)-ethyl]-4-pyridin-4-yl-benzamide] | < 50
C[C@@H](NC(=O)c1ccc(-c2ccncc2)cc1)c1ccc(F)cc1 [Example 85, N-[(1R)-1-(4-fluorophenyl)ethyl]-4-pyridin-4-ylbenzamide] | < 50
C[C@@H](NC(=O)c1ccc(-c2ccncc2)cc1Cl)c1ccccc1 [Example 191, 2-chloro-N—((R)-1-phenyl-ethyl)-4-pyridin-4-yl-benzamide] | 50 to 500
COc1cccc([C@H](C)NC(=O)c2ccc(-c3ccncc3)c(F)c2)c1 [Example 236, 3-fluoro-N—[(S)-1-(3-methoxy-phenyl)-ethyl]-4-pyridin-4-yl-benzamide] | 50 to 500
Cc1cnccc1-c1ccc(C(=O)NC(CO)c2cc(Cl)cc(Cl)c2)cc1 (stereo not drawn) [Example 185, N-[1-(3,5-dichloro-phenyl)-2-hydroxy-ethyl]-4-(3-methyl-pyridin-4-yl)-benzamide] | 50 to 500
COCC(Cc1ccccc1)NC(=O)c1ccc(-c2ccncc2)cc1 (stereo not drawn) [Example 16, N-(1-benzyl-2-methoxyethyl)-4-pyridin-4-ylbenzamide] | 50 to 500
COc1cc(-c2ccncc2)ccc1C(=O)N[C@H](C)c1ccccc1 [Example 112, 2-methoxy-N—((R)-1-phenyl-ethyl)-4-pyridin-4-yl-benzamide] | < 50
Cc1ccc(C(CN)NC(=O)c2ccc(-c3ccncc3)cc2)cc1 (stereo not drawn) [Example 46, N-[2-amino-1-(4-methylphenyl)ethyl]-4-pyridin-4-ylbenzamide] | < 50
COc1ccccc1C(CO)NC(=O)c1ccc(-c2ccncc2C)cc1 (stereo not drawn) [Example 171, N-[2-hydroxy-1-(2-methoxy-phenyl)-ethyl]-4-(3-methyl-pyridin-4-yl)-benzamide] | 50 to 500
COc1cccc([C@@H](C)NC(=O)c2ccc(-c3ccncc3)cc2C)c1 [Example 96, N—[(R)-1-(3-methoxy-phenyl)-ethyl]-2-methyl-4-pyridin-4-yl-benzamide] | < 50
COc1ccccc1[C@@H](C)NC(=O)c1ccc(-c2ccncc2C)cc1 [Example 175, N—[(R)-1-(2-methoxy-phenyl)-ethyl]-4-(3-methyl-pyridin-4-yl)-benzamide] | 50 to 500
Cc1ccc(C(C)NC(=O)c2ccc(-c3ccncc3)cc2)o1 (stereo not drawn) [Example 71] | 50 to 500
O=C(NC(CN1CCOCC1)c1ccccc1)c1ccc(-c2ccncc2)cc1 (stereo not drawn) [Example 32, N-(2-morpholin-4-yl-1-phenylethyl)-4-pyridin-4-ylbenzamide] | < 50
C[C@@H](NC(=O)c1ccc(-c2ccncc2)cc1)c1ccc2ccccc2c1 [Example 91, N-[(1R)-1-(2-naphthyl)ethyl]-4-pyridin-4-ylbenzamide] | < 50
C[C@@H](NC(=O)c1ccc(-c2ccncc2)c(F)c1)c1ccc2ccccc2c1 [Example 229, 3-fluoro-N—((R)-1-naphthalen-2-yl-ethyl)-4-pyridin-4-yl-benzamide] | 50 to 500
C[C@@H](NC(=O)c1ccc(-c2ccncc2)cc1)c1cc(C(F)(F)F)cc(C(F)(F)F)c1 [Example 89, N-{(1R)-1-[3,5-bis(trifluoromethyl)phenyl]ethyl}-4-pyridin-4-ylbenzamide] | 50 to 500
Cc1cnccc1-c1ccc(C(=O)N[C@H](C)c2ccc(Br)cc2)cc1 [Example 166, N—[(R)-1-(4-bromo-phenyl)-ethyl]-4-(3-methyl-pyridin-4-yl)-benzamide] | 50 to 500
